The text below walks through data of US12065443B2, “Compounds and pharmaceutical compositions thereof for the treatment of diseases” (priority 2017, dated 2024).

Assay [1] addresses T1, SIK1 (Homo sapiens, UniProt P57059).
T1 construct: purchased Carna Biosciences 02-131
The assay is described as follows: biochemical. The settings on record: ADP-Glo SIK kinase assay. The protocol: (§1) The ADP-Glo™ kinase assay is a luminescent technology assay which measures the ADP formed from a kinase reaction. […] In a second step the kinase reactions are terminated and all the remaining ATP is depleted. In a final step the ADP is converted into ATP and this newly synthesized ATP is measured by using a luciferase/luciferin reaction. The generated light is measured using an Envision plate reader, wherein the luminescent signal obtained positively correlates with the kinase activity.
(§2) 1% DMSO and 10 μM staurosporine final concentrations are used as negative and positive controls.
(§3) 2 μL enzyme-substrate mixture is added to the assay plates.
(§4) The reaction is started by adding 2 μL diluted ATP on the assay plates. Plates are centrifuged for a few seconds at 1000 rpm and gently shaken for 2 min followed by an incubation at RT for 120 min.
(§5) The reactions are stopped and the unconsumed ATP is depleted by adding 5 μL ADP-Glo Reagent (Promega, Cat #V912B) to the reaction. The plates are centrifuged for a few seconds at 1000 rpm and incubated at RT for 40 min (ATP depletion).
(§6) The ADP is converted to ATP and luciferase and luciferin is introduced to detect ATP by adding 10 μL Kinase Detection Reagent (Promega, Cat #V913B+V914B) to the reaction. The plates are centrifuged for a few seconds at 1000 rpm and incubated at RT for 30 min (ADP detection).
(§7) Luminescence is measured on an Envision plate reader (PerkinElmer Inc.).

For assay [2], the target named is T2, SIK2 (Homo sapiens, UniProt Q9H0K1).
T2 construct: purchased ThermoFisher Scientific PV4792
The assay is described as follows: biochemical. The settings on record: ADP-Glo SIK kinase assay. The procedure:
as §1, §2, §3, §4, §5, §6, §7

Assay [3] has as its target T3, SIK3 (Homo sapiens, UniProt Q9Y2K2).
T3 construct: purchased SignalChem S12-11G-100
The assay is described as follows: biochemical. The settings on record: ADP-Glo SIK kinase assay. The protocol: as §1, §2, §3, §4, §5, §6, §7
A general note: ADP-Glo turns the ADP formed in a reaction into a luminescent signal.

In assay [4] the target is T1, SIK1. The assay is described as follows: biochemical. The settings on record: 33P radioactive SIK kinase assay, AMARA peptide, 10 μM ATP; read-out: SIK1 IC50. The essentials:
(§8)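 AMARA peptide phosphorylation by SIK1–3 is quantified through ^33P uptake from a labeled/unlabeled ATP blend. Staurosporine at 10 μM final defines full inhibition, 1% DMSO the uninhibited signal. Quench uses phosphoric acid; counting follows filter capture.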

The target of assay [5] is T2, SIK2. Nature of the assay: biochemical. The settings on record: 33P radioactive SIK kinase assay, AMARA peptide, 10 μM ATP. Summed up: as §8
Assay [6] addresses T3, SIK3. The assay is described as follows: biochemical. The essentials: as §8
Assay [7] has as its system LPS-induced TNFα secretion in monocyte-derived macrophages (MdM). The assay is described as follows: MdM assay: LPS-triggered TNFα (ELISA). The settings on record: Homo sapiens, Macrophage, LPS-triggered TNFα inhibition. It is filed as cell-based, human. The essentials: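 Human CD14+ monocytes isolated from buffy-coat PBMCs by magnetic beads, differentiated to macrophages; on day 10 compound preincubated 1 h at 37 °C, then LPS 200 ng/mL added (0.2% DMSO). Supernatant taken after 20 h; TNFα quantified by sandwich ELISA against standard curve.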
A general note: An ELISA detects its analyte on a solid surface through an enzyme-linked reagent.

Assay [8] concerns LPS triggered IL-10 secretion in monocyte-derived macrophages (MdM). Nature of the assay: MdM assay: LPS-triggered IL-10 (ELISA). In kind it is cell-based, human. The settings on record: maximal fold change vs LPS only, median across assays. The protocol:
This assay evaluates illustrative compounds of the invention for their inhibition of LPS-induced TNFα and LPS triggered IL-10 secretion in monocyte-derived macrophages.
PBMCs are isolated from human blood samples (buffycoats). The buffy coat is aseptically transferred into a 50 mL Falcon tube, and diluted 1/2 in PBS. Falcon tubes are filled with 20 mL Lymphoprep™, on top of which 25 mL of the buffy coat is carefully added, tubes are centrifuged for 35 min at 400 g in temperature controlled centrifuge, without brake, at 25° C. PBMCs are aspirated from the white interface layer between sample and Lymphoprep™. PBMCs are washed five times in PBS.
PBMCs are centrifuged at 300×g for 10 min and resuspended at a density of 1.0E07 cells/80 μL Miltenyi buffer (PBS, pH 7.4, 1% FBS, 2 mM EDTA).
Starting from this point of the protocol all steps are performed on ice. 20 μL of CD14+ micro-beads are added per 1.0E07 cells, the tube is mixed and incubated for 15 min in the fridge at 4° C. Cell suspension volume is adjusted to total volume of 100 mL using Miltenyi buffer, mixed gently and subsequently centrifuged for 10 min at 300× g. Supernantant is discarded and cell pellet is resuspended in 12 mL of Miltenyi buffer.
Four LS columns are placed in the MACS Separator (magnet) from Miltenyi Biotec, and are prewet by rinsing with 3 mL of MACS buffer per column. Three mL of cell suspension is added onto the column (max 1*10^8 of labelled cells/column), and columns are subsequently washed 3 times with 3 mL of Miltenyi buffer.
The columns are removed from the magnets, and 5 mL of Miltenyi buffer are added to the column to flush out the CD14+ fraction by pushing the plunger into the column. The flushed fractions are collected in a fresh 50 mL Falcon and volume is adjusted to 30 mL using Miltenyi buffer, cells are centrifuged for 10 min at 300× g. The obtained cell pellet is resuspended in 10 mL RPMI w/o FBS, and cell density is determined using a hematologic analyser (Sysmex XS-500i).
On day 10, MdMs are triggered and compound is added.
A compound dilution plate is made in 100% DMSO by 3-fold dilution of 10 mM stock solution. An intermediate dilution plate (10× final concentration) is made by diluting the compound dilution plate 50-fold in RPMI medium.
Medium is carefully removed from cell plates using multichannel pipette, and replaced by 80 μL fresh medium. 10 μL of the 10× final concentration compound is added to the cells and incubated for 1 hour at 37° C. before addition of trigger. No trigger conditions/trigger conditions are spiked with equal final DMSO concentrations of 0.2% DMSO. 10 μL of 10×LPS (final conc. 200 ng/mL) solution are added to all wells except for the ‘no trigger wells’ where 10 μL medium is added. Supernatant is collected after 2 h (IL-10 determination) and after 20 h (TNFα determination) of LPS triggering.
Plates are washed three times with PBST, where after 100 μL of Strep-HRP conjugate (0.5 μg/mL final concentration diluted in dilution buffer) is added. Plates are incubated in the dark, at 37° C. for 30 min. Plates are washed three times with PBST. […] 100 μL of substrate solution is added to each well and incubated until brilliant blue color develops. The reaction is stopped by adding 50 μL of 1 M H2SO4, after which absorbance is measured at 450 nm on the SpectraMax i3, Molecular Devices.
To quantify these inductions fold changes (FC) compared to ‘LPS only’ are calculated for each concentration tested and the maximal FC is calculated (IL-10 FCmax):
[formula] wherein ABS=Absorbance measured at 450 nm.
The median maximal FC for test compounds across two or more assays is reported (IL-10FCmax median).

Read-outs that look alike come from different tables or passages of the source.

T3 sequence (Q9Y2K2 whole entry): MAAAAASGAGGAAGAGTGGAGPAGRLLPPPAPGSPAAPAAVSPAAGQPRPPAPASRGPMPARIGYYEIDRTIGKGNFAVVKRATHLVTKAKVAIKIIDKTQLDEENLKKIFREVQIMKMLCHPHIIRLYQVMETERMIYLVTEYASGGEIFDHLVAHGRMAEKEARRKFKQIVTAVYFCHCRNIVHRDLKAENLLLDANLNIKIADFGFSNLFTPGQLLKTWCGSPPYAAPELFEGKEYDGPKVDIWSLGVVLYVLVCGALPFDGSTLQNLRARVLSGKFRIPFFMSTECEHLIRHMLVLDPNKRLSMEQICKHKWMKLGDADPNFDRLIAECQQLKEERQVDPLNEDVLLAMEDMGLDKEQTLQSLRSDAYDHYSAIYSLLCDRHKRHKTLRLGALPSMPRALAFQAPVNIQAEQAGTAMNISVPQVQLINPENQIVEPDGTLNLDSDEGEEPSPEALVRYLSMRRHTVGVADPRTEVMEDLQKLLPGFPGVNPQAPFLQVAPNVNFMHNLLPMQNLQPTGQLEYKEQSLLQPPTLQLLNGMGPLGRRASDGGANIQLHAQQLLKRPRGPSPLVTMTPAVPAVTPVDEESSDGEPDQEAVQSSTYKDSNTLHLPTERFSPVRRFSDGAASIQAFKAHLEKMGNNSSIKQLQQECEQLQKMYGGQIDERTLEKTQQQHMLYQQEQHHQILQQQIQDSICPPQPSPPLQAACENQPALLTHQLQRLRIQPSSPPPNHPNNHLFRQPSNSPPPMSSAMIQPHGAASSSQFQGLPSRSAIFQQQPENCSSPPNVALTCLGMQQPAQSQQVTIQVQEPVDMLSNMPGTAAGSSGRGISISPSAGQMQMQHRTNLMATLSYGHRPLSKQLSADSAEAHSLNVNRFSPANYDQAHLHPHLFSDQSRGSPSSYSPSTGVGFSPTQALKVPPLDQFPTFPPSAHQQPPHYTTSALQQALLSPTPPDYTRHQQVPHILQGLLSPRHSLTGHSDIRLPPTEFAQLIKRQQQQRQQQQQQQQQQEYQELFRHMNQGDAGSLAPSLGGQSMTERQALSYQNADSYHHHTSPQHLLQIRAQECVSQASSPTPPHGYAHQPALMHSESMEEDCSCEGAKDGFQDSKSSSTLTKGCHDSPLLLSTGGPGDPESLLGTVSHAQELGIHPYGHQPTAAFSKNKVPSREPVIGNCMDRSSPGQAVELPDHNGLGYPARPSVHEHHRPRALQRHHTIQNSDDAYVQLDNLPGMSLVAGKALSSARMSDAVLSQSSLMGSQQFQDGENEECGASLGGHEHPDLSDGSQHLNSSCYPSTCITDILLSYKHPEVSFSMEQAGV
T1 sequence (P57059 whole entry): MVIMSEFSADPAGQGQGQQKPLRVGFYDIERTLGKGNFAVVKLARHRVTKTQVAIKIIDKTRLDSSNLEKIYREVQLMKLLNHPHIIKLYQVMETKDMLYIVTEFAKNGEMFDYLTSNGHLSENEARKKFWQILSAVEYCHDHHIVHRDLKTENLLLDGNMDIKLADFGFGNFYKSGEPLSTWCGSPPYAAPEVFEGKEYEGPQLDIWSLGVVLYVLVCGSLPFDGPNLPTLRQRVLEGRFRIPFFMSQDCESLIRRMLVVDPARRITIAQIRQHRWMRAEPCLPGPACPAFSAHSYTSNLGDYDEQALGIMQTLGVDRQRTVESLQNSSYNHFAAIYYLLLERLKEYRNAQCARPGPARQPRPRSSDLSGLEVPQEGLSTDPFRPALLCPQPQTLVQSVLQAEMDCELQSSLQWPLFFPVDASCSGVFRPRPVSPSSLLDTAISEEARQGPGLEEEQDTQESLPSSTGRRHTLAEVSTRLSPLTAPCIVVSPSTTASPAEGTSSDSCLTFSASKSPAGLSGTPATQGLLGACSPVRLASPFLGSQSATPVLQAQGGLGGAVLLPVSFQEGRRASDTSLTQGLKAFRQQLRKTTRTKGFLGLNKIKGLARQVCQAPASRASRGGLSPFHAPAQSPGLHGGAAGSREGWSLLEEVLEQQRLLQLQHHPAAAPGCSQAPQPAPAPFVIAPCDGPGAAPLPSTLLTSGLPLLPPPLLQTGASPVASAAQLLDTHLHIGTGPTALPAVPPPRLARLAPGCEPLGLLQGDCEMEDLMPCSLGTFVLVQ
T2 sequence (Q9H0K1 whole entry): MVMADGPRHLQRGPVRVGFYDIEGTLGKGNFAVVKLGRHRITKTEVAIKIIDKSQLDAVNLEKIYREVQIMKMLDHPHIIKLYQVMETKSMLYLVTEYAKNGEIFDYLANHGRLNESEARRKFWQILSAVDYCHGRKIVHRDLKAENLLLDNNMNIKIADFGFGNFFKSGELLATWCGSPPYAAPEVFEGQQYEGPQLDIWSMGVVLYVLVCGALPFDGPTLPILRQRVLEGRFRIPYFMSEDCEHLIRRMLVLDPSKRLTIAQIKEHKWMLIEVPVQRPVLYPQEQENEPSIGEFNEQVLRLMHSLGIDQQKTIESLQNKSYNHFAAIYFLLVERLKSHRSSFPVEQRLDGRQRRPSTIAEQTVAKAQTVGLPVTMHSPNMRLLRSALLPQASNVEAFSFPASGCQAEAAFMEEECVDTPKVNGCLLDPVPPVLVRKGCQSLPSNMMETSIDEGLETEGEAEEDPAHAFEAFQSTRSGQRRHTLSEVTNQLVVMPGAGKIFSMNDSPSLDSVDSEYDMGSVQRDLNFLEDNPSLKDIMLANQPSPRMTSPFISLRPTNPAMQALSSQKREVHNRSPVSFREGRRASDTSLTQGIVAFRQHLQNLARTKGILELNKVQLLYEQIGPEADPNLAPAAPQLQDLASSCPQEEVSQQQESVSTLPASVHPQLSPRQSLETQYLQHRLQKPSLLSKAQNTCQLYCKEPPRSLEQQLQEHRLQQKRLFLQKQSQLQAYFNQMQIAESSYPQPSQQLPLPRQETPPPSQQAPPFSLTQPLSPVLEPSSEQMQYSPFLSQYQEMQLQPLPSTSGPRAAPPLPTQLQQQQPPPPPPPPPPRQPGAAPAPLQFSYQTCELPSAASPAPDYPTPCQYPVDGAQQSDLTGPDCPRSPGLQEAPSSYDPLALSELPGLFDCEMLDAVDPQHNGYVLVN

A word on the IC50: it is the concentration that inhibits the measured activity by half. For `[2H]C([2H])([2H])Oc1cc(-c2cnc3cc(-c4cnn(C)c4)ccn23)cc(OC([2H])([2H])[2H])c1C(=O)NCC(F)(F)F` [Cpd 266, 4-[7-(1-methylpyrazol-4-yl)imidazo[1,2-a]pyridin-3-yl]-2,6-bis(trideuterio-methoxy)-N-(2,2,2-trifluoroethyl)benzamide], the IC50 at SIK1 [1], at SIK2 [2] and against SIK3 [3] was 0.01 to 10 nM in each case.

With `CCOC(=O)Cn1cc(-c2ccn3c(-c4cc(OC)c(C(=O)NC5CC5)c(OC(F)F)c4)cnc3c2)cn1` [Cpd 284, ethyl 2-[4-[3-[4-(cyclopropyl-carbamoyl)-3-(difluoromethoxy)-5-methoxy-phenyl]imidazo[1,2-a]pyridin-7-yl]pyrazol-1-yl]acetate], the 50% inhibitory concentration (IC50) at SIK1 [1], against SIK2 [2] and on SIK3 [3] was 0.01 to 10 nM throughout.

For `COc1cc(-c2cnc3cc(-c4cnn(C)c4)c(OCc4ccccc4)cn23)cc(OC(F)F)c1C(=O)NC1CC1` [Cpd 300, 4-[6-benzyloxy-7-(1-methylpyrazol-4-yl)imidazo[1,2-a]pyridin-3-yl]-N-cyclopropyl-2-(difluoromethoxy)-6-methoxy-benzamide], the half-inhibitory concentration (IC50) was 10 to 100 nM on SIK1 [1], 0.01 to 10 nM at SIK2 [2] and 10 to 100 nM on SIK3 [3].

`COc1cc(-c2cnc3cc(-c4cnn(C)c4)c(OC(C)C#N)cn23)cc(OC(F)F)c1C(=O)NC1CC1` (centres unmarked) [Cpd 301, 4-[6-(1-cyanoethoxy)-7-(1-methylpyrazol-4-yl)imidazo[1,2-a]pyridin-3-yl]-N-cyclopropyl-2-(difluoromethoxy)-6-methoxy-benzamide]: the 50% inhibitory concentration (IC50) against SIK1 [1], at SIK2 [2] and at SIK3 [3] was 0.01 to 10 nM throughout.

What is called EC50 is the concentration that produces a half-maximal response. High values mean weaker potency, low ones greater potency. For the molecule `COc1cc(-n2cnc3cc(-c4cnn(C)c4)ccc32)cc(OC)c1C(=O)N1CC(O)(C(F)(F)F)C1` [compound 219, [2,6-dimethoxy-4-[5-(1-methylpyrazol-4-yl)benzimidazol-1-yl]phenyl]-[3-hydroxy-3-(trifluoromethyl)azetidin-1-yl]methanone], the IC50 on SIK1 [4], on SIK2 [5] and at SIK3 [6] was 0.01 to 10 nM in each case. In assay [7], this molecule returned an EC50 of 100 to 1000 nM. In addition, the “IL-10 FCmax median” value in assay [8] is recorded as “++ (>1.5-4.5)”.

In the case of `COc1cc(-c2cnc3cc(-c4cn[nH]c4)ccn23)cc(OC)c1C(=O)N[C@H](C)C(F)(F)F` [compound 222, 2,6-dimethoxy-4-[7-(1H-pyrazol-4-yl)imidazo[1,2-a]pyridin-3-yl]-N-[(1R)-2,2,2-trifluoro-1-methyl-ethyl]benzamide], the IC50 on SIK1 [4], at SIK2 [5] and against SIK3 [6] was 0.01 to 10 nM in each case. Besides, the concentration for a half-maximal effect (EC50) in assay [7] lay in the range of 100 to 1000 nM. The “IL-10 FCmax median” value in assay [8] is given as “+++ (>4.5)”.

As for `COc1cc(-c2cnc3cc(-c4cc(C)no4)ccn23)cc(OC)c1C(=O)N[C@H](C)C(F)(F)F` [compound 223, 2,6-dimethoxy-4-[7-(3-methylisoxazol-5-yl)imidazo[1,2-a]pyridin-3-yl]-N-[(1R)-2,2,2-trifluoro-1-methyl-ethyl]benzamide], the IC50 at SIK1 [4], on SIK2 [5] and on SIK3 [6] was 10 to 100 nM each time. For the same molecule, the EC50 in assay [7] is 100 to 1000 nM. For the same molecule, the “IL-10 FCmax median” value in assay [8] is on record as “+++ (>4.5)”.

As to `COc1ccc(-c2ccn3c(-c4cc(OC)c(C(=O)NCC(F)(F)F)c(OC)c4)cnc3c2)cn1` [compound 239, 2,6-dimethoxy-4-[7-(6-mcthoxy-3-pyridyl)imidazo[1,2--a]pyridin-3-yl]-N-(2,2,2-trifluoroethyl)benzamide], the IC50 is 10 to 100 nM at SIK1 [4], 0.01 to 10 nM on SIK2 [5] and 0.01 to 10 nM at SIK3 [6]. Moreover, in assay [7], the EC50 is 100 to 1000 nM. In addition, the “IL-10 FCmax median” value in assay [8] is recorded as “++ (>1.5-4.5)”.

As for `COc1cc(-c2cnc3cc(-c4ccc(C#N)nc4)ccn23)cc(OC)c1C(=O)NCC(F)(F)F` [compound 240, 4-[7-(6-cyano-3-pyridyl)imidazo[1,2-a]pyridin-3-yl]-2,6-dimethoxy-N-(2,2,2-trifluoroethyl)benzamide], the IC50 at SIK1 [4] lay within 100 to 500 nM; on SIK2 [5] it was 10 to 100 nM; against SIK3 [6], 0.01 to 10 nM. This molecule registered an EC50 in assay [7] of 100 to 1000 nM. In addition, the “IL-10 FCmax median” value in assay [8] is given as “+ (≤1.5)”.

Consider `COC(=O)CCCn1cc(-c2ccn3c(-c4cc(OC)c(C(=O)NCC(F)(F)F)c(OC)c4)cnc3c2)cn1` [compound 256, methyl 4-[4-[3-[3,5-dimethoxy-4-(2,2,2-trifluoroethyl-carbamoyl)phenyl]imidazo[1,2-a]pyridin-7-yl]pyrazol-1-yl]butanoate], for which the IC50 on SIK1 [4], at SIK2 [5] and at SIK3 [6] was 0.01 to 10 nM throughout. The concentration for a half-maximal effect (EC50) in assay [7] is 0.1 to 100 nM. For the same molecule, in assay [8], the “IL-10 FCmax median” value was “++ (>1.5-4.5)”.

With `CCOC(=O)CCCn1cc(-c2ccn3c(-c4cc(OC)c(C(=O)NCC(F)(F)F)c(OC)c4)cnc3c2)cn1` [compound 257, ethyl 4-[4-[3-[3,5-dimethoxy-4-(2,2,2-trifluoroethyl-carbamoyl)phenyl]imidazo[1,2-a]pyridin-7-yl]pyrazol-1-yl]butanoate], the IC50 at SIK1 [4], at SIK2 [5] and against SIK3 [6] was 0.01 to 10 nM throughout. In assay [7], the half-maximal effective concentration (EC50) was 0.1 to 100 nM. Moreover, in assay [8], the “IL-10 FCmax median” value was “+ (≤1.5)”.
